Reference: patent US20240207355A1, “PHARMACEUTICAL COMPOSITION FOR ENHANCING ANTICANCER EFFECT OF ANTICANCER DRUG” (L-BASE CO., LTD., priority 2021, published 2024)
Like-named read-outs stand apart in the source and are kept apart here. Ends that are not written are not given here. Peptide text beside a SMILES is read from it. * marks the point of attachment. Benzoyl(3-Ph) = O=C(c1cccc(-c2ccccc2)c1)*; Benzoyl(4-OMe) = COc1ccc(C(=O)*)cc1

Tests used:
[1] = tested on: p-Beclin1S15; experiment: Immunohistochemical staining of p-Beclin1S15 in H820 tumor tissue; assay type: in vivo; conditions: H820 nude mice tumor; 3-PhPh-AQTGTGKT 10 mpk alone, 7 times at 2-day intervals; IHC; FIG. 7
Description: Tissue embedded in paraffin was cut to a thickness of 4 μm and affixed to a slide, then thoroughly dried and the IHC experiment procedure was performed. Each slide was deparaffinized, and endogenous enzymes were removed using citrate buffer (pH 6.0). Then, p-Beclin1S15 antibody was diluted to 1:100 and treated for 15 hours at 4° C. After washing 4 times with TBST wash buffer, rabbit HRP was treated for secondary antibody reaction and reacted at room temperature for 30 minutes. After the substrate for the antibody reaction was added, when the color appeared, the slide was washed and sealed, and after slide scanning, the result was read.
Nude mice transplanted with H820 lung cancer cell line, an animal model of lung cancer described in the “Experimental Materials and Methods,” was treated 7 times at 2-day intervals for 14 days with 3-PhPh-[…] at a dose of 10 mpk. Osimertinib was orally administered daily at 2.5 mpk, followed by tumor sampling and p-Beclin1S15 immunostaining.

[2] = tested on: H820 lung cancer cell line; experiment: Heterotransplant lung cancer animal model (H820), tumor growth; assay type: in vivo; conditions: H820 nude mice; 3-PhPh-AQTGTGKT 10 mpk alone, 7 times at a two-day interval for 14 days; FIG. 6A
Description: The test substances were administered intravenously and orally 7 times at 2-day intervals.
Nude mice transplanted with H820 lung cancer cell line, an animal model of lung cancer described in the “Experimental Materials and Methods,” was treated 7 times at a two-day interval for 14 days with 3-PhPh-[…] at a dose of 10 mpk, and Osimertinib was orally administered daily at 2.5 mpk. Then, the growth of the tumor was compared.

[3] = tested on: non-small cell lung cancer cell line PC9/OR; experiment: MTT assay, cell viability inhibition in non-small cell lung cancer cell line PC9/OR; assay type: cell-based; conditions: 68 h
[4] = tested on: lung cancer cell line H1975; experiment: MTT assay, cell viability inhibition in lung cancer cell line H1975; conditions: for cell viability decrease compared to the control group: human; for cytotoxicity at 0.5 µM: Osimertinib 0.5 μM alone
Description: (§1) Specifically, cells were seeded at 2×10^3/100 μl per well on a 96-well plate, and after culturing for 24 hours, the compound according to the present invention was administered; 4 hours later, anticancer drugs were treated to each cancer cell. The treatment concentration and treatment time of the compound and anticancer drug are specifically described in the embodiment. After completing the treatment of the compound and anticancer drug, CellTiter-96® reagent (Promega Co., USA) was reacted at 5% CO2, 37° C. after adding 10 μl per well. After 3 hours, absorbance was measured at 490 nm using a spectrophotometer (SPECTROstar^Nano, BMG).
H1975 was treated with 3-PhPh-[…] at a concentration of 25 μM and after 4 hours, Osimertinib was administered at a concentration of 1.25 μM, either alone or in combination, and the cell viability inhibitory effects were compared 68 hours later.
Subsequently, H1975 was treated with 4-PhPh-[…] at a concentration of 2 μM, and at the same time, Osimertinib was administered at a concentration of 1 μM, either alone or in combination, and the cell viability inhibitory effects were compared 48 hours later.
Next. H1975 was treated with Ac-[…] at a concentration of 10 μM, and at the same time, Osimertinib was administered at a concentration of 0.5 μM, either alone or in combination, and the cell viability inhibitory effects were compared 48 hours later.
Furthermore, H1975 was treated with 4-MeOPh-[…] at a concentration of 10 μM and simultaneously, a targeted anticancer drug, Osimertinib, was administered either alone or in combination at a concentration of 0.5 μM, and after 48 hours, the effects of inhibiting cell viability were compared.
Similarly, the lung cancer cell line H1975 was treated with 4-PhPh-[…] at a concentration of 2 μM according to the MTT assay method described in the “Experimental Materials and Methods”. At the same time, Alimta, a chemotherapeutic agent, was administered either alone or in combination at a concentration of 0.2 μM, and after 48 hours, the effects of inhibiting cell viability were compared.
The anticancer effect of the triple co-administration was compared with the 3-PhPh-[…] single treatment group, and the Osimertinib and Alimta co-treatment group.

[5] = tested on: lung cancer cell line H820; experiment: MTT assay, cell viability inhibition in lung cancer cell line H820; assay type: cell-based
Description: First, [sequence] was administered at a concentration of 10 μM to H820, and then, the targeted anticancer drug Osimertinib was administered either alone or in combination at a concentration of 5 μM, and the cell viability inhibitory effect was compared 48 hours later.

[6] = tested on: H1975/OR; experiment: MTT assay, cell viability inhibition in lung cancer cell line H1975/OR; conditions: for cell viability decrease compared to the control group: human, 5 μM
Description: as §1
Additionally, H1975/OR was treated with 3-PhPh-[…] at a concentration of 5 μM, and after 4 hours, the chemotherapeutic agent Alimta was administered either alone or in combination at a concentration of 0.1 μM, and after 72 hours, the effects of inhibiting cell viability were compared.
Subsequently, H1975/OR was treated with 3-PhPh-[…] at a concentration of 5 μM, and after 4 hours, the targeted anticancer drug Osimertinib was administered either alone or in combination at a concentration of 2.5 μM, and after 68 hours, the effects of inhibiting cell viability were compared.

[7] = tested on: breast cancer cell line HCC1937; experiment: MTT assay, cell viability inhibition in breast cancer cell line HCC1937; assay type: cell-based
Description: After 24 hours, the cell viability inhibitory effect was compared.
After 48 hours, the cell viability inhibitory effect was compared.
After 72 hours, the cell viability inhibitory effect was compared.

[8] = tested on: H1975 cell line; conditions: H1975 Balb/C nude mice
Description: H1975 cells were mixed with matrigel in a 1:1 ratio at a concentration of 5×10^6 cells/mouse, and each was subcutaneously inoculated at 200 μl into the flank of the mouse once. After the inoculation, it was confirmed that the volume of the formed tumor reached 70˜130 mm^3, and then random grouping was carried out. After the grouping, Osimertinib was administered orally every day, and after the growth of the tumor was inhibited, the point of re-growth was identified and the co-administration with the test substance was started. The test substances were administered intravenously 7 times at 2-day intervals.
After inoculating the H1975 cell line in 4-week-old female Balb/C nude mice, the presence and growth of the tumor were observed and the short and long axes of the tumor were measured to calculate the volume. When the volume of the tumor reached 70-120 mm^3, the groups were randomly separated and PBS, the negative control group, and Osimertinib at 5 mpk were orally administered daily.
The first day of administration was set as day 1, and the volume of the tumor was measured twice a week.
Accordingly, the individuals who orally administered 5 mpk Osimertinib every day for 28 days were further divided into two groups and observed until the 32nd day of administration.

Question: What does the source list for `C[C@H](NC(=O)c1cccc(-c2ccccc2)c1)C(=O)N[C@@H](CCC(N)=O)C(=O)N[C@H](C(=O)NCC(=O)N[C@H](C(=O)NCC(=O)N[C@@H](CCCCN)C(=O)N[C@H](C(=O)O)[C@@H](C)O)[C@@H](C)O)[C@@H](C)O` ({Benzoyl(3-Ph)}-AQTGTGKT-OH)?
Answer: expression of p-Beclin1S15 compared to the group receiving Osimertinib alone [1]: reduced; tumor viability reduction compared to the control group (PBS administered group) [2]: about 38%; cell viability decrease compared to the control group ([3]; human, 25 μM): approximately 0.2%; cell viability decrease compared to the control group ([4]; 68 h, 25 μM): about 10%; cell viability decrease compared to the control group ([5]; human, 72 h, 40 μM): about 8%; cell viability decrease compared to the control group ([6]; 68 h): about 17%; cell viability decrease compared to the control group ([6]; 72 h): about 6.5%; decrease in cell viability compared to the control group ([7]; human, 72 h, 10 μM): about 3%

Question: Which “cell viability decrease compared to the control group” value ([4]; 48 h, 10 μM) does the source give for `COc1ccc(C(=O)N[C@@H](C)C(=O)N[C@@H](CCC(N)=O)C(=O)N[C@H](C(=O)NCC(=O)N[C@H](C(=O)NCC(=O)N[C@@H](CCCCN)C(=O)N[C@H](C(=O)O)[C@@H](C)O)[C@@H](C)O)[C@@H](C)O)cc1` ({Benzoyl(4-OMe)}-AQTGTGKT-OH) here?
Answer: Its value is “about 6%”.

Question: What about the “decrease in cell viability compared to the control group” value ([7]; human, 48 h, 5 μM) of the same compound?
Answer: Its value is “about 4.6%”.

Question: Which results are given for `Nc1nc2[nH]cc(CCc3ccc(C(=O)N[C@@H](CCC(=O)O)C(=O)O)cc3)c2c(=O)[nH]1` [Alimta, Pemetrexed, reference compound]?
Answer: cytotoxicity at 0.2 µM ([4]; Homo sapiens, NCI-H1975, 48 h, read-out: cell viability decrease compared to the control group, H1975, Alimta 0.2 μM alone, 48 hours, FIG. 1E): ~6%; cytotoxicity at 0.1 µM ([6]; Homo sapiens, NCI-H1975, 72 h, read-out: cell viability decrease compared to the control group): ~8.3%

Question: `O=C(c1cc(Cc2n[nH]c(=O)c3ccccc23)ccc1F)N1CCN(C(=O)C2CC2)CC1` [Olaparib, reference compound] was tested. Which cytotoxicity at 2.5 µM ([7]; Homo sapiens, HCC1937, 24 h, read-out: decrease in cell viability compared to the control group) did it give?
Answer: Its cytotoxicity at 2.5 µM is ~1.2%.

Question: For `C=CC(=O)Nc1cc(Nc2nccc(-c3cn(C)c4ccccc34)n2)c(OC)cc1N(C)CCN(C)C` [Osimertinib], which cytotoxicity at 4 µM ([3]; PC9-OR, read-out: cell viability decrease compared to the control group) is on record?
Answer: Its cytotoxicity at 4 µM is ~10%.

Question: What about the cytotoxicity at 0.5 µM ([4]; Homo sapiens, NCI-H1975, 48 h, read-out: cell viability decrease compared to the control group, H1975, 48 hours, FIG. 1C) of the same compound?
Answer: The cytotoxicity at 0.5 µM was ~12%.

Question: And the cytotoxicity at 0.5 µM ([4]; Homo sapiens, NCI-H1975, 48 h, read-out: cell viability decrease compared to the control group, H1975, 48 hours, FIG. 1D)?
Answer: Its cytotoxicity at 0.5 µM is ~21%.

Question: What about the cytotoxicity at 1 µM ([4]; Homo sapiens, NCI-H1975, 48 h, read-out: cell viability decrease compared to the control group, H1975, Osimertinib 1 μM alone, 48 hours, FIG. 1B) of the same compound?
Answer: Its cytotoxicity at 1 µM is ~5%.

Question: What about the cytotoxicity at 1.25 µM ([4]; Homo sapiens, NCI-H1975, 68 h, read-out: cell viability decrease compared to the control group, H1975, Osimertinib 1.25 μM alone, 68 hours, FIG. 1A) of the same compound?
Answer: Its cytotoxicity at 1.25 µM is ~19%.

Question: What about the cytotoxicity at 5 µM ([5]; NCI-H820, 48 h, read-out: cell viability decrease compared to the control group) of the same compound?
Answer: Its cytotoxicity at 5 µM is ~28%.

Question: What about the cytotoxicity at 6 µM ([5]; NCI-H820, 72 h, read-out: cell viability decrease compared to the control group) of the same compound?
Answer: The cytotoxicity at 6 µM was ~15%.

Question: What about the cytotoxicity at 2.5 µM ([6]; Homo sapiens, NCI-H1975, 68 h, read-out: cell viability decrease compared to the control group) of the same compound?
Answer: The cytotoxicity at 2.5 µM was ~7%.

Question: What about the “growth of the tumor compared to the PBS group” value ([8]; Osimertinib 5 mpk orally daily, before resistance, P<0.001) of the same compound?
Answer: The value was “significantly suppressed”.

Question: What about the “weight loss or death of animals during the experiment” value ([8]; all groups) of the same compound?
Answer: The value was “No weight loss or death”.

Question: With “AQTGTGKT [alanine-glutamine-threonine-glycine-threonine-glycine-lysine-threonine]” as the compound, how does the “cell viability decrease compared to the control group” value ([5]; H820, AQTGTGKT 10 μM alone, 48 hours, FIG. 2A) read?
Answer: The value was “about 15%”.

Question: What about the “decrease in cell viability compared to the control group” value ([7]; HCC1937, AQTGTGKT 5 μM alone, 24 hours, FIG. 4A) of the same compound?
Answer: Its value is “no decrease in cell viability”.
